Assay [1] addresses Beta-1 adrenergic receptor (Homo sapiens, UniProt P08588). Put plainly: DRUGMATRIX: Adrenergic beta1 radioligand binding (ligand: [125I] Cyanopindolol). The class given is cell membranes, CHO-K1, Membrane. As to conditions: cho-k1; Not Active = under 50% inhibition at 10 µM.
Assay [2] can be described thus: DRUGMATRIX: Tumor Necrosis Factor (TNF), Non-Selective radioligand binding (ligand: [125I] TNF-alpha). The class given is cell membranes, Membrane. The conditions noted are these: u-937; Not Active = under 50% inhibition at 10 µM.
The target in assay [3] is T1, C-X-C chemokine receptor type 2 (Homo sapiens, UniProt P25025). Further: in other assays of this panel Not Active means under 50% inhibition at 10 µM.
T1 sequence (P25025 whole entry): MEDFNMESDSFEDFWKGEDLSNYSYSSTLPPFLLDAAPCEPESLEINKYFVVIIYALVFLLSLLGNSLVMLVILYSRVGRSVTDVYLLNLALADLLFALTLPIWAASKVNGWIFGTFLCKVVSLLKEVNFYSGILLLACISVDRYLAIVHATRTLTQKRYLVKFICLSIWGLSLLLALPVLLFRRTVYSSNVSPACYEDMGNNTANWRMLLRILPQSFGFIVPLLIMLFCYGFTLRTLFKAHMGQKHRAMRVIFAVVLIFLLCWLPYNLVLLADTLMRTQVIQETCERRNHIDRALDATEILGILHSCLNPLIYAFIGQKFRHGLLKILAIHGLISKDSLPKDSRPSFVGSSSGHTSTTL
The class given is cell membranes, Membrane. As to conditions: cho-k1.

In assay [4] the target is T2, Cholecystokinin receptor type A (Homo sapiens, UniProt P32238). Further: in other assays of this panel Not Active means under 50% inhibition at 10 µM.
T2 sequence (P32238 whole entry): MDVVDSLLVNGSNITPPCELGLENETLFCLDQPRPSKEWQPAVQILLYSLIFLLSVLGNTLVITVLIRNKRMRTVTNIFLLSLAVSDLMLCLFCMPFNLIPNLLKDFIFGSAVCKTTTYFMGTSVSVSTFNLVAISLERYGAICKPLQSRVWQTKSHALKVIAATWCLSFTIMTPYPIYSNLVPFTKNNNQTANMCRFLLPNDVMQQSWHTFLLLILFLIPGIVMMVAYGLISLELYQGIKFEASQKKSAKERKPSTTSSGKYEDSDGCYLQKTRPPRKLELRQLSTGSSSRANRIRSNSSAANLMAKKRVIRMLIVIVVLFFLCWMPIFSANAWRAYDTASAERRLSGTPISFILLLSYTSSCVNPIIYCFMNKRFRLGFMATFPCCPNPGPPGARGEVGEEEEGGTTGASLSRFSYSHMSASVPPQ
Type of assay: cell membranes, Membrane. The conditions noted are these: 1321-n1.

Another assay deals with D(3) dopamine receptor (Homo sapiens, UniProt P35462). Description: DRUGMATRIX: Dopamine D3 radioligand binding (ligand: [3H] Spiperone). The class given is cell membranes, CHO, Membrane. The conditions noted are these: cho.
Sequence of D(3) dopamine receptor (P35462 whole entry): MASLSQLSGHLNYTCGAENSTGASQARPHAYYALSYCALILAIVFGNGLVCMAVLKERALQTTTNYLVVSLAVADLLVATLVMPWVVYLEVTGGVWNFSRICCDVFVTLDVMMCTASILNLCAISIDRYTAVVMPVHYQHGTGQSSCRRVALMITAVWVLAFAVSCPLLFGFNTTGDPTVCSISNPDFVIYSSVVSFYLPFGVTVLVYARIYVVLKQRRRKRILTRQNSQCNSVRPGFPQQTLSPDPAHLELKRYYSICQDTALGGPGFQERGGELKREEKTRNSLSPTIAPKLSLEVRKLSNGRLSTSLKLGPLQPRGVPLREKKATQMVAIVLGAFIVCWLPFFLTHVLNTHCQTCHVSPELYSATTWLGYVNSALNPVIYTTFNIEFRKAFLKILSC
The target of assay [5] is T3, Muscarinic acetylcholine receptor M2 (Homo sapiens, UniProt P08172). Further: in other assays of this panel Not Active means under 50% inhibition at 10 µM.
T3 sequence (P08172 whole entry): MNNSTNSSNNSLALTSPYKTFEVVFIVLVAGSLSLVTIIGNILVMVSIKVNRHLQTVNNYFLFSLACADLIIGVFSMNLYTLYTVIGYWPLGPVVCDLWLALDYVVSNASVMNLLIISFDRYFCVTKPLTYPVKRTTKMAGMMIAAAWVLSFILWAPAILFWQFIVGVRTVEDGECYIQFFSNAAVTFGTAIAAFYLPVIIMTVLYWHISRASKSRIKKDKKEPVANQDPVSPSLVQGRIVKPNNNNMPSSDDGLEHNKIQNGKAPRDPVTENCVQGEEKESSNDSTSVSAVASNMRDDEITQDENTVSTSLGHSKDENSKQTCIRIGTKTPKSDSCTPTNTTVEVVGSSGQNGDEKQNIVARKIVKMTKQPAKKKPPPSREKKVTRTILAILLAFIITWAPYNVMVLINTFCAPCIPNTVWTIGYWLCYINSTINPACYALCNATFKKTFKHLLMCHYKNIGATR
The class given is cell membranes, CHO-K1, Membrane. As to conditions: cho-k1.

Assay [6] concerns the target T4, Nitric oxide synthase, inducible (Mus musculus, UniProt P29477).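 Further: inhibition of iNOS enzyme activity measured with L-arginine as substrate; in other assays of this panel Not Active means under 50% inhibition at 10 µM.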
T4 sequence (P29477 whole entry): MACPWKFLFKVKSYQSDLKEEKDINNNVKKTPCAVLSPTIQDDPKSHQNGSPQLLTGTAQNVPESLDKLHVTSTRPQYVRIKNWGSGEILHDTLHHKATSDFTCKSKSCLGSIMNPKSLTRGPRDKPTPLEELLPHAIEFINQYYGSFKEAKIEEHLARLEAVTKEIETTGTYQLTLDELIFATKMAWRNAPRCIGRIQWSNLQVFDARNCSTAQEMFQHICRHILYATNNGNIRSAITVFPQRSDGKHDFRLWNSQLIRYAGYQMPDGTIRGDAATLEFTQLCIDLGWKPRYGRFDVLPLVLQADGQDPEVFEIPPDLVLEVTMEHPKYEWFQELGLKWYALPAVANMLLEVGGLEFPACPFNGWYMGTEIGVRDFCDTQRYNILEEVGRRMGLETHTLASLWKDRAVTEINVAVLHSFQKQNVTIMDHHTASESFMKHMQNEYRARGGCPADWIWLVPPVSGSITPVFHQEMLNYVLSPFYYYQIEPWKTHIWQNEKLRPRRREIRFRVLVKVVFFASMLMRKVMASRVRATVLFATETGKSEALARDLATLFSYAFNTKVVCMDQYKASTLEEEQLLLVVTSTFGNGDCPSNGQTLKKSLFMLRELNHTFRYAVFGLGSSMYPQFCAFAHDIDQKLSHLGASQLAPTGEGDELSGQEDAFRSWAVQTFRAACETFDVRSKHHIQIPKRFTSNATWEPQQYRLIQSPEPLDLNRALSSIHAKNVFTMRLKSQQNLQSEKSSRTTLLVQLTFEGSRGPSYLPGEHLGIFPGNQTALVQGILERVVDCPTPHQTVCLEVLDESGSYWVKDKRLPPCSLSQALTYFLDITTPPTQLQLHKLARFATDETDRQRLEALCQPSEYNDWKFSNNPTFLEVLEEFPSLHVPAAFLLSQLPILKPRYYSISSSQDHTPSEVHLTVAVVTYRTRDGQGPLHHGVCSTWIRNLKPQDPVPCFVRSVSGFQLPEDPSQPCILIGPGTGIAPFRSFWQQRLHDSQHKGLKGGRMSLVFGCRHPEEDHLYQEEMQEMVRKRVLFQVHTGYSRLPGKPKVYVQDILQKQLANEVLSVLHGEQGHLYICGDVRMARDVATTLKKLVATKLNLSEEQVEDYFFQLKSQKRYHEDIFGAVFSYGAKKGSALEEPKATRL
Further details: species or system Escherichia coli.

Assay [7] is described as follows: DRUGMATRIX: Phosphodiesterase PDE4 enzyme inhibition (substrate: [3H]cAMP + cAMP). As to conditions: u-937; Not Active = under 50% inhibition at 10 µM.
Assay [8] has as its target Tyrosine-protein kinase Fyn (Homo sapiens, UniProt P06241). Description: biochemical. Type of assay: cell-based, Insect cells. As to conditions: insect cells.
The target in assay [9] is Tyrosine-protein kinase Lck (Homo sapiens, UniProt P06239). Put plainly: DRUGMATRIX: Protein Tyrosine Kinase, LCK enzyme inhibition (substrate: Poly(Glu:Tyr)). The class given is cell-based, Insect cells. As to conditions: insect cells; Not Active = under 50% inhibition at 10 µM.
Sequence of Tyrosine-protein kinase Lck (P06239 whole entry): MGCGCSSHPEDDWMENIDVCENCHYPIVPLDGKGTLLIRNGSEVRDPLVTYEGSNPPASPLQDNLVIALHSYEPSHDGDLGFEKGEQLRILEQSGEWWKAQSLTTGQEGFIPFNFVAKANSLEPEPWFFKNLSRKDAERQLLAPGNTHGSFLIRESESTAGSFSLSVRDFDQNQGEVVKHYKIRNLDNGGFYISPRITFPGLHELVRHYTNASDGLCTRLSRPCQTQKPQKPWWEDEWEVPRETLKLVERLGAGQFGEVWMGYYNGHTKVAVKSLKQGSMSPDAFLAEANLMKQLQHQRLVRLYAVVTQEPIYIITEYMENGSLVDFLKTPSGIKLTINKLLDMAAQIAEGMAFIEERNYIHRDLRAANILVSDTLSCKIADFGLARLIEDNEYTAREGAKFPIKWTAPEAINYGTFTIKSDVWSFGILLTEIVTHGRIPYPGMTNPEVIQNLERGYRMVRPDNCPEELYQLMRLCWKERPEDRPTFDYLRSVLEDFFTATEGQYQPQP

Here are results for two compounds from ChEMBL document CHEMBL1909046, “DrugMatrix in vitro pharmacology data”.

Sequence of Beta-1 adrenergic receptor (P08588 whole entry): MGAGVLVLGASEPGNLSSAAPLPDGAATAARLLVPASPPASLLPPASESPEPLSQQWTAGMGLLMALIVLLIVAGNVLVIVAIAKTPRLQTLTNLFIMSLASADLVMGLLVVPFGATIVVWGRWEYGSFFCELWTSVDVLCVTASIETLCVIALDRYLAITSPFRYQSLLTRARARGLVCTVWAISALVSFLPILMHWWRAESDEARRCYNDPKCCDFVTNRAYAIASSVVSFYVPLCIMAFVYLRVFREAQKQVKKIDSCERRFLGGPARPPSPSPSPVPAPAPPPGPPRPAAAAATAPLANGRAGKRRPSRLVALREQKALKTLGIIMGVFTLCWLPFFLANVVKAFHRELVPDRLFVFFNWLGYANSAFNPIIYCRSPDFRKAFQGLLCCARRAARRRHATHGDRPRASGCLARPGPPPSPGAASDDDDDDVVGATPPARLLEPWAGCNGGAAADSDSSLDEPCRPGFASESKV
Sequence of Tyrosine-protein kinase Fyn (P06241 whole entry): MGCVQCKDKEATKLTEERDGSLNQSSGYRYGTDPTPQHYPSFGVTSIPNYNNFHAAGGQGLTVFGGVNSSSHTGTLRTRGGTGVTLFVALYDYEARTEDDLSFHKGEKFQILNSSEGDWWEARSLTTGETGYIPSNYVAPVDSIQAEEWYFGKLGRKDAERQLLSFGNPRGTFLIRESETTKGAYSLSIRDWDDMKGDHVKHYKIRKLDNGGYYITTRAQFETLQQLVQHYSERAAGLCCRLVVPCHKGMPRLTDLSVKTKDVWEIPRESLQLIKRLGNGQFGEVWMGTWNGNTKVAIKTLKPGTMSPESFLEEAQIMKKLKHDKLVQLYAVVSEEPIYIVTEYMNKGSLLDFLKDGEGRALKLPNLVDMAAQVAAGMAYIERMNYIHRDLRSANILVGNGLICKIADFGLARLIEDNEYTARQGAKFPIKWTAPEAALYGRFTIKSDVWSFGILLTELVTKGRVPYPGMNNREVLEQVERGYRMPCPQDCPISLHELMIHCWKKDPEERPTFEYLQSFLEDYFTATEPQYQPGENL

As a reminder, the IC50 is the concentration that gives 50% inhibition. A word on the Ki: it is a dissociation constant, usually derived from enzyme kinetics or from competition with a known ligand. `COC(=O)[C@@H]1[C@H]2C[C@H]3c4[nH]c5ccccc5c4CCN3C[C@@H]2CC[C@@H]1O` [YOHIMBINE]: the IC50 result (in [1]; in [2]; in assay [3]; in [4]; on D(3) dopamine receptor; in assay [5]) was “Not Active” each time. The IC50 result in assay [6], in assay [7], in [8] and in assay [9] was “Not Active” throughout. For the same compound, the Ki result in [2] and in assay [7] was “Not Active” throughout.
IVERMECTIN: the half-maximal inhibitory concentration (IC50) entry in [1] is “Not Active”; in assay [2] it was “Not Active”; in assay [3] it was “Not Active”; in [4] it was “Not Active”; at D(3) dopamine receptor (read-out: IC50), 2210 nM; in [5] it was “Not Active”. The IC50 entry in [6], in assay [7], in assay [8] and in [9] was “Not Active” in each case. In addition, the inhibition constant Ki result in assay [1] was “Not Active”; in assay [2] it was “Not Active”; in assay [3], “Not Active”; in assay [4], “Not Active”; on D(3) dopamine receptor (read-out: Ki) it was 750 nM; in assay [5], “Not Active”. Further, the Ki result in assay [6], in assay [7], in assay [8] and in assay [9] was “Not Active” in each case.
